Data on five compounds can be found in patent US6329399A, “Antifungal amine derivatives and processing for producing the same” (Pola Chemical Industries, Inc., priority 1997, dated 2001).

Each structure is given as a SMILES string. Values after ≈ are worked out from the molar mass of the structure shown.

What all share (test): Measurement of antimycotic activity (minimum inhibitory concentration, MIC) against dermatophyte
Holding throughout (type): cell-based

The subject of one assay is T. rubrum IF09185. As to conditions: Trichophyton rubrum, 168 h, Sabouraud's agar pH=5.9, 27° C., 1 week. The protocol:
(§1) The antimycotic activity of the compounds of the invention against dermatophyte was examined.
(§2) More particularly, the test dermatophyte strains shown in Tables 9 and 10 below were cultivated in advance on a slant culture of Sabouraud's agar medium (manufactured by Nissui Seiyaku Co., Ltd.; 1.0% peptone, 4.0% glucose, 1.5% agar, pH=5.9) at 27° C. for 2 weeks to allow them to grow conidia sufficiently. Then, sterilized physiological saline containing 0.05 weight/volume % of Tween 80 was added to the culture and while rubbing the surface of the culture with a platinum loop, the conidia were separated and caused to float. Using a hemocytometer, the filtrate was adjusted with sterilized physiological saline such that the concentration of conidia was 10^6 cells/ml, which was used as a test microbe liquid.
(§3) On the other hand, PR compounds and AD compounds (test drugs) of the present invention obtained in the examples described above were taken each in an amount of 10 mg, and 1 ml of dimethyl sulfoxide was added thereto to form a stock solution, of which 500 μl was taken and 500 μl of dimethyl sulfoxide was added thereto to prepare a 2-fold dilution. The same operation was repeated to prepare 13-stages ranging from 10 to 0.0025 mg/ml (final concentration of test system 100 to 0.025 μg/ml) of diluted drug solutions. Solutions with various diluted concentrations of test drug were each dispensed in sterilized petri dish with an amount of 100 μl. Then, 10 ml of sterile-dissolved Sabouraud's agar medium (1.0% peptone, 4.0% glucose, 1.5% agar, pH=5.9) was added, well mixed and solidified. Then, 5 μl of the test microbe solution previously adjusted were added using a microplanter, respectively.
(§4) The results are shown in Table 9 for PR compounds and in Table 10 for AD compounds, respectively. In the column of Compound No. in Tables 9 and 10, "PR-" or "AD-" were omitted.

The subject of another assay is T. rubrum IF05808. As to conditions: Trichophyton rubrum, 168 h, Sabouraud's agar pH=5.9, 27° C., 1 week. The procedure: as §1, §2, §3, §4
The test system of assay [1] is T. mentagrophytes TIMM1189. As to conditions: Trichophyton mentagrophytes, 168 h, Sabouraud's agar pH=5.9, 27° C., 1 week. The procedure: as §1, §2, §3, §4
The next assay has as its system M. gypseum IF08231. The conditions noted are these: Nannizzia gypsea, 168 h, Sabouraud's agar pH=5.9, 27° C., 1 week. The procedure:
as §1, §2, §3, §4

The test system of the next assay is M. canis TIMM0760. The conditions noted are these: Microsporum canis, 168 h, Sabouraud's agar pH=5.9, 27° C., 1 week. The protocol:
as §1, §2, §3, §4

In assay [2] the test system is T. mentagrophytes TIMM1177. The conditions noted are these: Trichophyton mentagrophytes, 168 h, Sabouraud's agar pH=5.9, 27° C., 1 week. The procedure:
as §1, §2, §3, §4

A further assay relates to T. violaceum TIMM1264. As to conditions: Trichophyton violaceum, 168 h, Sabouraud's agar pH=5.9, 27° C., 1 week. The protocol: as §1, §2, §3, §4
The subject of assay [3] is T. mentagrophytes IF07552. As to conditions: Trichophyton mentagrophytes, 168 h, Sabouraud's agar pH=5.9, 27° C., 1 week. The procedure:
as §1, §2, §3, §4

Assay [4] concerns T. mentagrophytes IF05811. The conditions noted are these: Trichophyton mentagrophytes, 168 h, Sabouraud's agar pH=5.9, 27° C., 1 week. The procedure: as §1, §2, §3, §4

Take `C=C(CN(C)Cc1ccc(C(C)(C)C)cc1)c1ccc(C)cc1C` [Compound AD-046, N-(4-tert-butylbenzyl)-N-methyl-[2-(2,4-dimethylphenyl)-2-propenyl]amine]: the MIC (in general, the lowest concentration that inhibits growth of the organism) in the assay with T. rubrum IF09185 was 3.12 µg/mL (≈ 9.7 µM); in the assay with T. rubrum IF05808, 1.56 µg/mL (≈ 4.85 µM); in assay [1] it was 12.5 µg/mL (≈ 38.9 µM); against M. gypseum IF08231, 12.5 µg/mL (≈ 38.9 µM); against M. canis TIMM0760, 6.25 µg/mL (≈ 19.4 µM); in [2] it was 12.5 µg/mL (≈ 38.9 µM). The figures for the MIC (with T. violaceum TIMM1264; in [3]; in assay [4]) were 12.5 µg/mL (≈ 38.9 µM), 6.25 µg/mL (≈ 19.4 µM) and 6.25 µg/mL (≈ 19.4 µM), respectively.
In the case of `C=C(CN(C)C/C=C/C#CC(C)(C)C)c1ccccc1C` [Compound PR-1533, trans-N-(6,6-dimethyl-2-hepten-4-ynyl)-N-methyl-[2-(o-tolyl)-2-propenyl]amine], the MIC is 0.39 µg/mL (≈ 1.39 µM) in the assay on T. rubrum IF09185; 0.39 µg/mL (≈ 1.39 µM) against T. rubrum IF05808; 0.39 µg/mL (≈ 1.39 µM) in assay [1]; 6.25 µg/mL (≈ 22.2 µM) with M. gypseum IF08231; 0.39 µg/mL (≈ 1.39 µM) with M. canis TIMM0760; 0.39 µg/mL (≈ 1.39 µM) in assay [2]. Besides, the results for the MIC (with T. violaceum TIMM1264; in assay [3]; in [4]) were 0.39 µg/mL (≈ 1.39 µM), 1.56 µg/mL (≈ 5.54 µM) and 0.39 µg/mL (≈ 1.39 µM), respectively.
On to `C=C(CN(C)C/C=C/C#CC(C)(C)C)c1ccccc1Br` [Compound PR-1505, trans-N-(6,6-dimethyl-2-hepten-4-ynyl)-N-methyl-[2-(2-bromophenyl)-2-propenyl]amine], for which the MIC was found to be 1.56 µg/mL (≈ 4.5 µM) in the assay with T. rubrum IF09185; 0.39 µg/mL (≈ 1.13 µM) with T. rubrum IF05808; 1.56 µg/mL (≈ 4.5 µM) in [1]; 6.25 µg/mL (≈ 18 µM) against M. gypseum IF08231; 0.39 µg/mL (≈ 1.13 µM) in the assay on M. canis TIMM0760; 1.56 µg/mL (≈ 4.5 µM) in [2]. In addition, the MIC in the assay on T. violaceum TIMM1264 was found to be 0.39 µg/mL (≈ 1.13 µM); in [3], 1.56 µg/mL (≈ 4.5 µM); in assay [4], 1.56 µg/mL (≈ 4.5 µM).
With `C=C(CN(C)C/C=C/C#CC(C)(C)C)c1ccccc1F` [Compound PR-1491, Trans-N-(6,6-dimethyl-2-hepten-4-ynyl)-N-methyl-[2-(2-fluorophenyl)-2-propenyl]amine], the MIC in the assay on T. rubrum IF09185 is 0.39 µg/mL (≈ 1.37 µM); in the assay on T. rubrum IF05808, 0.1 µg/mL (≈ 0.35 µM); in assay [1] it was 0.39 µg/mL (≈ 1.37 µM); against M. gypseum IF08231 it was 6.25 µg/mL (≈ 21.9 µM); in the assay on M. canis TIMM0760, 0.1 µg/mL (≈ 0.35 µM); in [2], 0.39 µg/mL (≈ 1.37 µM). The MIC (against T. violaceum TIMM1264; in [3]; in assay [4]) was 0.39 µg/mL (≈ 1.37 µM) each time.
For `CN(C/C=C/C#CC(C)(C)C)CC(=O)c1ccccc1O` [Compound PR-1620, Trans-2-[N-(6,6-dimethyl-2-hepten-4-ynyl)-N-methylamino]-2'-hydroxyacetophenone], the MIC in the assay on T. rubrum IF09185 came to 12.5 µg/mL (≈ 43.8 µM); with T. rubrum IF05808, 6.25 µg/mL (≈ 21.9 µM); in assay [1], 12.5 µg/mL (≈ 43.8 µM); against M. gypseum IF08231 it was 25 µg/mL (≈ 87.6 µM); in the assay with M. canis TIMM0760, 12.5 µg/mL (≈ 43.8 µM); in assay [2], 12.5 µg/mL (≈ 43.8 µM). Moreover, the results for the MIC (in the assay on T. violaceum TIMM1264; in assay [3]; in assay [4]) were 12.5 µg/mL (≈ 43.8 µM), 6.25 µg/mL (≈ 21.9 µM) and 12.5 µg/mL (≈ 43.8 µM), respectively.
